Assay results from ChEMBL document CHEMBL1149293, “Identification of 7-phenylaminothieno- [3,2-b]pyridine-6-carbonitriles as a new class of Src kinase inhibitors” (J Med Chem, 2004).

Target: Proto-oncogene tyrosine-protein kinase Src (Homo sapiens, UniProt P12931)
Experiment: Inhibition of Src kinase

Proto-oncogene tyrosine-protein kinase Src, sequence (P12931 2-536 limits assumed): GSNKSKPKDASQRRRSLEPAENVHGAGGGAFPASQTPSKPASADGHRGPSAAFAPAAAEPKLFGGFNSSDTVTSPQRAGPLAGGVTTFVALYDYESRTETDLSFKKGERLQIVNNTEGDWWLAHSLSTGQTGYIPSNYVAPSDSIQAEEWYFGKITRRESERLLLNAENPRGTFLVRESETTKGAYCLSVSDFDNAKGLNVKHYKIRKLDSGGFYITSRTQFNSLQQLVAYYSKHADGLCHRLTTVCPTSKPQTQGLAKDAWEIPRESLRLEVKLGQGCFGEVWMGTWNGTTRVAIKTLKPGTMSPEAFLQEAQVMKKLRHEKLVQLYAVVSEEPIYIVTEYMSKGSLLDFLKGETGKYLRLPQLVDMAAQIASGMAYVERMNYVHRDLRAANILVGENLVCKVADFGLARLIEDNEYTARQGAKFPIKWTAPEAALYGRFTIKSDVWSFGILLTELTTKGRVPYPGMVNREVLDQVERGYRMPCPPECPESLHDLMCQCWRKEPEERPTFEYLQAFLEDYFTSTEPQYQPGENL

With COc1cc(Nc2c(C#N)cnc3c(-c4ccc(CN5CCOCC5)cc4)csc23)c(Cl)cc1Cl the IC50 was > 10 µM.
For COc1cc(Nc2c(C#N)cnc3cc(-c4ccccc4N4CCN(C)CC4)sc23)c(Cl)cc1Cl, the IC50 was > 10 µM.
